Test results from article PMC11676667, “Pharmacokinetics of Oral Cannabinoid Δ8-Tetrahydrocannabivarin and Its Main Metabolites in Healthy Participants” (Pharmaceuticals, 2024).

Test: Plasma pharmacokinetics after single oral dose of Δ8-THCV in MCT oil (LC-MS/MS, non-compartmental analysis)
Format: in vivo, human
Set-up: Clast (last quantifiable concentration): unit not given here
Settings: for Clast (last quantifiable concentration) / tlast (time to last quantifiable concentration) / concentration at 0.5 h / concentration at 1 h / concentration at 2 h / concentration at 4 h / concentration at 6 h / concentration at 8 h: plasma; for plasma concentration: Predose; for concentration at 0.5 h / concentration at 1 h / concentration at 2 h / concentration at 4 h / concentration at 6 h / concentration at 8 h: human, oral
Procedure: The study was a two-phase, dose-ranging, placebo-controlled trial in 21 healthy participants to assess the safety, tolerability, PK, and PD of an oral formulation of Δ8-THCV. A detailed description of the study was published elsewhere. The study product was a medium-chain triglyceride (MCT) oil oral formulation of Δ8-THCV at a concentration of 50 mg/mL. […] MCT oil was used as placebo.
Twenty-one participants were enrolled in the clinical study and plasma samples from 15 participants were sent to our laboratory for pharmacokinetic evaluation. Of these, 3 participants were enrolled in Phase 1, an unblinded, placebo-controlled, single ascending dose design and 12 were enrolled in Phase 2, a double-blind, randomized, placebo-controlled, within-participant crossover design. At each study session, participants received one of the following oral doses: placebo, 12.5 mg, 25 mg, 50 mg, 100 mg, and 200 mg of the aforementioned Δ8-THCV formulation in MCT. Study visits were separated by a washout period of a minimum of one week and maximum of 28 days. Participants entered the research facility the night before the session and received the study product in the morning after a standardized high-fat, high-calorie breakfast. PK blood samples included in this analysis were collected prior to dosing and 0.5, 1, 2, 4, 6, and 8 h after dose. Immediately following collection into K2EDTA tubes, blood samples were placed on wet ice, centrifuged, and plasma was immediately frozen at −80 °C until shipment to the bioanalytical laboratory (iC42 Clinical Research and Development, University of Colorado, Aurora, CO, USA) on dry ice.
Plasma samples were analyzed using a validated high-performance liquid chromatography–tandem mass spectrometry (LC-MS/MS) assay. The assay included Δ8-THCV and its main metabolites 11-OH-Δ8-THCV and Δ8-THCV-COOH, Δ9-THCV and its main metabolite Δ9-THCV-COOH, and Δ9-THC and Δ8-THC as well as their main metabolites (Figure 3). The complete list of analyzed compounds and a summary of the key performance parameters of the assay are presented in Appendix A and Table A1 and Table A2. […] For the PK analysis, concentrations below the lower limit of quantification were set to 0 ng/mL. PK parameters were calculated using non-compartmental analysis (Phoenix WinNonlin version 8.4., Certara, Princeton, NJ, USA). Statistical analysis was carried out using GraphPad Prism (version 10, Boston, MA, USA).

[1] = 12.5 mg single oral Δ8-THCV in MCT oil, Mean (±SD)
[2] = 12.5 mg single oral Δ8-THCV in MCT oil, Median (Range)
[3] = 25 mg single oral Δ8-THCV in MCT oil, Mean (±SD)
[4] = 25 mg single oral Δ8-THCV in MCT oil, Median (Range)
[5] = 50 mg single oral Δ8-THCV in MCT oil, Mean (±SD)
[6] = 50 mg single oral Δ8-THCV in MCT oil, Median (Range)
[7] = 100 mg single oral Δ8-THCV in MCT oil, Mean (±SD)
[8] = 100 mg single oral Δ8-THCV in MCT oil, Median (Range)
[9] = 200 mg single oral Δ8-THCV in MCT oil, Mean (±SD)
[10] = 200 mg single oral Δ8-THCV in MCT oil, Median (Range)
[11] = 12.5 mg, 12.5 mg Δ8-THCV dose, Mean (SD, %CV)
[12] = 12.5 mg, 12.5 mg Δ8-THCV dose, Median (IQ Range)
[13] = 25 mg, 25 mg Δ8-THCV dose, Mean (SD, %CV)
[14] = 25 mg, 25 mg Δ8-THCV dose, Median (IQ Range)
[15] = 50 mg, 50 mg Δ8-THCV dose, Mean (SD, %CV)
[16] = 50 mg, 50 mg Δ8-THCV dose, Median (IQ Range)

In the case of `CCCc1cc(O)c2c(c1)OC(C)(C)[C@@H]1CC=C(C(=O)O)C[C@@H]21` [Δ8-THCV-COOH, 11-nor-9-carboxy-Δ8-THCV], the “Clast (last quantifiable concentration)” value [1] is reported as 46.8 (±23), the “tlast (time to last quantifiable concentration)” value (“tlast” for short) [1] is reported as 8 (±0) and the “Clast (last quantifiable concentration)” value [2] is reported as 38.2 (20.1–102). The “tlast” value [2] was 8 (8–8), the “Clast (last quantifiable concentration)” value [3] was 71.6 (±33.8) and the “tlast” value [3] was 8 (±0). The “Clast (last quantifiable concentration)” value [4] was 78.3 (25.5–146), the “tlast” value [4] was 8 (8–8) and the “Clast (last quantifiable concentration)” value [5] was 166 (±60.3). The “tlast” value [5] was 8 (±0), the “Clast (last quantifiable concentration)” value [6] was 148 (78.9–264) and the “tlast” value [6] was 8 (8–8). The “Clast (last quantifiable concentration)” value [7] was 319 (±118), the “tlast” value [7] was 8 (±0) and the “Clast (last quantifiable concentration)” value [8] was 304 (153–590). For the same compound, the “tlast” value [8] was 8 (8–8), the “Clast (last quantifiable concentration)” value [9] was 917 (±582) and the “tlast” value [9] was 8 (±0). For the same compound, the “Clast (last quantifiable concentration)” value [10] was 855 (364–2402), the “tlast” value [10] was 8 (8–8) and the plasma concentration (12.5 mg Δ8-THCV dose, Mean (SD, %CV)) was 0.2 (±0.4, 267) ng/mL. For the same compound, the plasma concentration (12.5 mg Δ8-THCV dose, Median (IQ Range)) was 0 (0–0) ng/mL, the plasma concentration (25 mg Δ8-THCV dose, Mean (SD, %CV)) was 0.3 (±1, 374) ng/mL and the plasma concentration (25 mg Δ8-THCV dose, Median (IQ Range)) was 0 (0–0) ng/mL. For the same compound, the plasma concentration (50 mg Δ8-THCV dose, Mean (SD, %CV)) was 0.8 (±1.6, 187) ng/mL, the plasma concentration (50 mg Δ8-THCV dose, Median (IQ Range)) was 0 (0–0.9) ng/mL and the plasma concentration (100 mg Δ8-THCV dose, Mean (SD, %CV)) was 0.5 (±0.8, 166) ng/mL. For the same compound, the plasma concentration (100 mg Δ8-THCV dose, Median (IQ Range)) was 0 (0–1) ng/mL, the plasma concentration (200 mg Δ8-THCV dose, Mean (SD, %CV)) was 0.1 (±0.3, 387) ng/mL and the plasma concentration (200 mg Δ8-THCV dose, Median (IQ Range)) was 0 (0–0) ng/mL. For the same compound, the “median AUClast ratio Δ8-THCV-COOH/Δ8-THCV/11-OH-Δ8-THCV” value (after the 200 mg dose, Δ8-THCV = 1) was 36, the concentration at 0.5 h [11] was 0.4 ng/mL and the concentration at 0.5 h [12] was 0 ng/mL. The concentration at 1 h [11] was 15 ng/mL, the concentration at 1 h [12] was 3 ng/mL and the concentration at 2 h [11] was 30.1 ng/mL. The concentration at 2 h [12] was 15.5 ng/mL, the concentration at 4 h [11] was 84.6 ng/mL and the concentration at 4 h [12] was 73.1 ng/mL. The concentration at 6 h [11] was 62.2 ng/mL, the concentration at 6 h [12] was 53.3 ng/mL and the concentration at 8 h [11] was 46.8 ng/mL. The concentration at 8 h [12] was 38.2 ng/mL, the concentration at 0.5 h [13] was 2.7 ng/mL and the concentration at 0.5 h [14] was 0 ng/mL. The concentration at 1 h [13] was 28.5 ng/mL, the concentration at 1 h [14] was 7.1 ng/mL and the concentration at 2 h [13] was 54.6 ng/mL. For the same compound, the concentration at 2 h [14] was 55.6 ng/mL, the concentration at 4 h [13] was 136 ng/mL and the concentration at 4 h [14] was 108 ng/mL. The concentration at 6 h [13] was 96.3 ng/mL, the concentration at 6 h [14] was 82.6 ng/mL and the concentration at 8 h [13] was 71.6 ng/mL. It also gave a concentration at 8 h [14] of 78.3 ng/mL, a concentration at 0.5 h [15] of 4.7 ng/mL and a concentration at 0.5 h [16] of 1.3 ng/mL. For the same compound, the concentration at 1 h [15] was 27.3 ng/mL, the concentration at 1 h [16] was 4.8 ng/mL and the concentration at 2 h [15] was 84.1 ng/mL. For the same compound, the concentration at 2 h [16] was 26.5 ng/mL, the concentration at 4 h [15] was 214 ng/mL and the concentration at 4 h [16] was 177 ng/mL. The concentration at 6 h [15] was 233 ng/mL, the concentration at 6 h [16] was 200 ng/mL and the concentration at 8 h [15] was 166 ng/mL. It also gave a concentration at 8 h [16] of 148 ng/mL and a concentration at 0.5 h (100 mg, 100 mg Δ8-THCV dose, Mean (SD, %CV)) of 13 ng/mL.
